Experimental data published in patent US8012998B2, “Pyrrolidine aryl-ether as NK-3 receptor antagonists” (Hoffmann—LA Roche Inc., priority 2007, dated 2011).

test system: not given; test: not given; conditions: phase II trial; negative symptoms (depression, anhedonia, social isolation, memory and attention deficits); cited from earlier work

Row | SMILES | activity in the treatment of negative symptoms of schizophrenia
1 | CC(=O)N(C)C1(c2ccccc2)CCN(CCC[C@]2(c3ccc(Cl)c(Cl)c3)CCCN(C(=O)c3ccccc3)C2)CC1 [SR 142,801, Osanetant] | inactive

same assay, conditions: phase II trial; positive symptoms (altered behaviour, delusion, hallucinations, extreme emotions, excited motor activity, incoherent speech); cited from earlier work

Row | SMILES | activity on positive symptoms of schizophrenia
2 | CC(=O)N(C)C1(c2ccccc2)CCN(CCC[C@]2(c3ccc(Cl)c(Cl)c3)CCCN(C(=O)c3ccccc3)C2)CC1 [SR 142,801, Osanetant] | active

molecular target: T1, human NK3 receptor (Homo sapiens, UniProt P29371); test: [3H]SR142801 competition binding assay (hNK3 receptor binding); conditions: [3H]SR142801 radioligand; membranes from HEK293 cells transiently expressing recombinant human NK3 receptor; Ki by Cheng-Prussoff; read-out: KiNK3 h
T1 construct: expressed in transfected cells; host or cells: HEK293 cells (transient expression), membrane preparation
T1 sequence (P29371 1-465): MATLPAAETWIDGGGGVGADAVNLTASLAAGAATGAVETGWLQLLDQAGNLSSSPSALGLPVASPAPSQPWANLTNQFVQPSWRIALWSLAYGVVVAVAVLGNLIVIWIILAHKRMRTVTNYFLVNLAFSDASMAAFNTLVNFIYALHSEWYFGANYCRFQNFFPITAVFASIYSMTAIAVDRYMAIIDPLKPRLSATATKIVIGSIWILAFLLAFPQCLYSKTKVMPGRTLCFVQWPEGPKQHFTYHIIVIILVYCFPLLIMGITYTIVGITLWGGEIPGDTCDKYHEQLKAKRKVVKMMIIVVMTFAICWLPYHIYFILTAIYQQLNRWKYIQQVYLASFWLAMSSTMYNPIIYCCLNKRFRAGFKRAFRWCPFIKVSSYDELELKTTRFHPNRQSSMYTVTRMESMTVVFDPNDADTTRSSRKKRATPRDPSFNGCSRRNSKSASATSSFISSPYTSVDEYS
Method in brief: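 Competition binding with [3H]SR142801 on membranes of HEK293 cells transiently expressing human NK3, 5 μg protein/well, in Tris-HCl/MnCl2/phosphoramidon/BSA buffer pH 7.4. Nonspecific binding defined with 10 μM SB222200; filtration then scintillation counting. IC50 from Hill fit was converted to Ki by Cheng-Prusoff; duplicate, mean ± SEM.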

Row | SMILES | Ki
3 | Cc1ncc(C(=O)N2C[C@H]([C@H](C)Oc3ccc(C#N)cn3)[C@@H](c3ccc(F)c(Cl)c3)C2)cn1 [Example 102, 6-{(S)-1-[(3R,4S)-4-(3-Chloro-4-fluoro-phenyl)-1-(2-methyl-pyrimidine-5-carbonyl)-pyrrolidin-3-yl]-ethoxy}-nicotinonitrile] | 0.0914 µM
4 | C[C@@H](Oc1ccc(Cl)cn1)[C@@H]1CN(C(=O)c2ccc(N(C)C)cc2)C[C@H]1c1ccc(Cl)c(Cl)c1 (racemic) [Example 13, [(3SR,4RS)-3-[(RS)-1-(5-Chloro-pyridin-2-yloxy)-ethyl]-4-(3,4-dichloro-phenyl)-pyrrolidin-1-yl]-(4-dimethylamino-phenyl)-methanone] | 0.05 µM
5 | C[C@@H](Oc1ccc(Cl)cn1)[C@@H]1CN(C(=O)c2cnc(C#N)nc2)C[C@H]1c1ccc(Cl)c(Cl)c1 [Example 50, 5-[(3S,4R)-3-[(R)-1-(5-Chloro-pyridin-2-yloxy)-ethyl]-4-(3,4-dichloro-phenyl)-pyrrolidine-1-carbonyl]-pyrimidine-2-carbonitrile] | 0.0046 µM
6 | C[C@@H](Oc1ccc(Cl)cn1)[C@@H]1CN(C(=O)c2ccc(CCN(C)C)cc2)C[C@H]1c1ccc(Cl)c(Cl)c1 [Example 44, [(3S,4R)-3-[(R)-1-(5-Chloro-pyridin-2-yloxy)-ethyl]-4-(3,4-dichloro-phenyl)-pyrrolidin-1-yl]-[4-(2-dimethylamino-ethyl)-phenyl]-methanone] | 0.0118 µM
7 | C[C@H](Oc1ccc(C#N)cn1)[C@H]1CN(C(=O)c2cnc(C(C)(C)C)nc2)C[C@@H]1c1ccc(Cl)c(Cl)c1 (racemic) [Example 98, 6-{(SR)-1-[(3RS,4SR)-1-(2-tert-Butyl-pyrimidine-5-carbonyl)-4-(3,4-dichloro-phenyl)-pyrrolidin-3-yl]-ethoxy}-nicotinonitrile] | 0.0457 µM
8 | C[C@H](Oc1ccc(C#N)cn1)[C@H]1CN(C(=O)c2ccnnc2)C[C@@H]1c1ccc(Cl)c(Cl)c1 (racemic) [Example 77, 6-{(SR)-1-[(3RS,4SR)-4-(3,4-Dichloro-phenyl)-1-(pyridazine-4-carbonyl)-pyrrolidin-3-yl]-ethoxy}-nicotinonitrile] | 0.0328 µM
9 | Cc1cc(C(=O)N2C[C@H]([C@H](CO)Oc3ccc(Cl)cn3)[C@@H](c3ccc(Cl)c(Cl)c3)C2)cnn1 [Example 112, [(3R,4S)-3-[(R)-1-(5-Chloro-pyridin-2-yloxy)-2-hydroxy-ethyl]-4-(3,4-dichloro-phenyl)-pyrrolidin-1-yl]-(6-methyl-pyridazin-4-yl)-methanone] | 0.005 µM
10 | Cc1cc(C(=O)N2C[C@H]([C@H](C)Oc3ccc(C#N)cn3)[C@@H](c3ccc(F)c(F)c3)C2)cnn1 [Example 106, 6-{(S)-1-[(3R,4S)-4-(3,4-Difluoro-phenyl)-1-(6-methyl-pyridazine-4-carbonyl)-pyrrolidin-3-yl]-ethoxy}-nicotinonitrile] | 0.0309 µM
11 | Cc1ncc(C(=O)N2C[C@H]([C@H](C)Oc3ccc(C(F)(F)F)cn3)[C@@H](c3ccc(Cl)c(Cl)c3)C2)cn1 (racemic) [Example 79, {(3SR,4RS)-3-(3,4-Dichloro-phenyl)-4-[(SR)-1-(5-trifluoromethyl-pyridin-2-yloxy)-ethyl]-pyrrolidin-1-yl}-(2-methyl-pyrimidin-5-yl)-methanone] | 0.0272 µM
